Test results from patent US20230293639A1, “SYSTEMS, DEVICES, COMPOSITIONS, AND METHODS FOR TREATING DIABETES” (Abvance Therapeutics, Inc., priority 2020, published 2023).

Tested on: patients with Type 1 diabetes
Test: Liquid meal challenge with IV insulin alone or IV insulin-glucagon co-infusion (4:1)
Type: in vivo, human
Conditions: for Requiring IV glucose rescue: subjects of eleven, rescue if plasma glucose dropped to 50 mg/dl
Procedure: Referring now to FIG. 12, a study protocol conducted by the applicant in human patients with Type 1 diabetes is illustrated, consistent with the present inventive concepts. […] The liquid meal challenge allows a clinically relevant assessment of plasma glucose rise and fall. […] By protocol, if plasma glucose dropped to 50 mg/dl, a variable glucose infusion was applied to maintain the glucose level at approximately 50 mg/dl, to avoid more serious hypoglycemia from occurring.
FIG. 13 illustrates the glucose excursion following the meal challenge for eleven patients (also referred to as “subjects” herein). […] The glucose excursion data is also presented below in Table 1, which compares peak plasma glucose levels and AUCs (area under curve) for the two treatment groups.

Substance: insulin
- subjects that had to be rescued (7 subjects whose glucose fell below the pre-meal value in the last 30 minutes): 5
- average glucose infusion rate (7 subjects whose glucose fell below the pre-meal value, last 30 minutes): 5.9 ± 2.2 mg/kg/min
- Time <70 mg/dl (eleven Type 1 diabetes patients): 20 ± 7%
- ΔPG 0-120AUC (eleven Type 1 diabetes patients, 0-120 min after liquid meal): 8162 ± 1514 mg·min/dL
- ΔPG 0-180AUC (eleven Type 1 diabetes patients, 0-180 min after liquid meal): 10501 ± 3014 mg·min/dL
- Peak PG (eleven Type 1 diabetes patients, after liquid meal): 224 ± 18 mg/dL
- Fasting PG (eleven Type 1 diabetes patients, before liquid meal): 121 ± 5 mg/dL
- sympathetic central nervous system response to hypoglycemia (venous plasma norepinephrine and epinephrine) (four patients): elevations of venous plasma norepinephrine and epinephrine
- average glucose infusion rate over the last 30 minutes (in all subjects (eleven-subject comparison)): 3.8 ± 1.6 mg/kg/min
- PG nadir (lowest point during insulin-alone arm vs equivalent time point during insulin-glucagon arm): 51 ± 4.0 mg/dL
- average plasma glucose nadir (seven subjects with plasma glucose <80 mg/dl in insulin-alone arm, matching time point in insulin-glucagon arm): 50 ± 4 mg/dL
- Requiring IV glucose rescue (listed as Insulin-Alone): 5/11
- Requiring IV glucose rescue (listed as insulin-alone): Five of eleven
- patients rescued with glucose infusions (subset of four patients with more complete hormone analysis): Three out of the four
